US20240207244A1, “COMPOSITIONS AND METHODS FOR TREATING NEURODEGENERATIVE DISORDERS THROUGH INHIBITION OF CD44 AND FERM PROTEIN INTERACTION” (Arizona Board of Regents on Behalf of the University of …, priority 2021, published 2024)

Assays:
[1] = target: T1, Moesin (Homo sapiens, UniProt P26038); assay: Saturation transfer difference NMR (STD-NMR) binding to Moesin
Source text: Following in silico docking, we (the inventors) triage binding using saturation transfer difference NMR (STD-NMR) as is routinely done in our laboratory to define binding of small molecules (see, Mollasalehi, N. et al. ACS Chem Biol, doi: 10.1021/acschembio.0c00494 (2020): Francois-Moutal, L. et al. ACS Chem Biol 14, 2006-2013, doi: 10.1021/acschembio.9b00481 (2019): François-Moutal, L. et al. ACS Chem Biol 13, 3000-3010, doi:10.1021/acschembio.8b00745 (2018)) (FIG. 2A). After testing the ability of all compounds to bind to Moesin. […] We then measured the affinity of binding using micro-scale thermophoresis (MST), a technique to quantify biomolecular interactions, based on thermophoresis. Concentration-dependent measurements were done using MST to determine dissociation constant for binding of P1 to Moesin and we obtained Apparent Kd=Xxx±xxx μM. Data are presented as mean±SD (n=3) (FIG. 3).

[2] = target: GST (Schistosoma japonicum, UniProt P08515); assay: STD-NMR binding to control GST; conditions: control protein
[3] = tested on: HMC3 cells; assay: Flow cytometry of HLA-DR expression in IFNγ-stimulated HMC3 microglial cells; format: cell-based, Human; conditions: HMC3 cells pre-incubated 24 h, then stimulated with IFNγ
Source text: Once we define the binding using purified protein, we validate the binding in cells. We have done this through imaging by using the Lumio™ system for site-specific fluorescent labeling of recombinant proteins in living cells, flow cytometry assays, and cellular thermal shift assay (CETSA). • Lumio™ System Imaging: This recently developed method relies on FLASH (Fluorescein Arsenical Hairpin) technology, which uses biarsenical labeling reagents to bind and detect proteins containing a tetracysteine (TC) motif (Griffin et al., 1998). The biarsenical labeling reagents are nonfluorescent until they bind the TC motif at which time, they become highly fluorescent. Both, a genetically engineered CD44 containing a TC motif, and mCherry-Moesin, were co-transfected into Immortalized Human Microglia (SV40 cell line) (FIG. 5). Ongoing work is being done to optimize this protocol and adapt it for use with small compounds. • Flow Cytometry: Current studies of microglial activation are widely performed to study neuroinflammation and test small compounds and their anti-inflammatory properties. IFNγ was be used to activate macrophage response in HMC3 cells (Human microglial cell line, PMID: 30200996), while flow cytometry was employed in combination with small compounds. […] Reactive microglia expressing the histocompatibility glycoprotein HLA-DR were detected using flow cytometry. […]

[4] = target: T1, Moesin; assay: Cellular Thermal Shift Assay (CETSA); format: cell-based
Source text: CETSA: To further ascertain the binding between Moesin and small compounds, we are currently developing Cellular Thermal Shift Assay (CETSA), a convenient cell-based test for identifying target engagement between ligands (i.e. a drug candidate) and their protein targets (PMID:XXX). CETSA has been previously used to measure the binding of small molecules to Ezrin (another FERM protein similar to Moesin) in a cellular environment (PMID: 33003361). The assay consists of the measurement of the shift in thermal stability of the target protein (Moesin) in the presence of the small molecules. The apparent melting temperature (Tm), observed in the presence or the absence of a bioactive compound, can be evaluated by measuring the persistence of soluble protein at different temperatures. If the compound binds to the protein of interest, a shift in melting temperature is observed.

[5] = target: T1, Moesin; assay: Biophysical binding of P1 analogs (SAR); conditions: first round of analogs
Source text: Indeed, such experiments defined the known structural interactions between CD44, and Msn based on a co-crystal structure of this protein-protein complex. It was proposed that the binding of Msn through CD44 could be mimicked by small molecules. By performing in silico docking on the CD44 binding pocket, using a virtual screen of 50,000 compounds and 200,000 pharmacophores and guided by FERM domain-peptide co-crystal structures, such experiments identified druggable pockets in these FERM proteins. Top scoring compounds were tested for binding to recombinant purified FERM proteins using several biophysical methods.
• Before engaging in custom synthesis, we searched for additional commercially available analogs to expand SAR at the east part of the P1, keeping the piperidinemethyl-heterocycle constant (FIG. 7, red oval). A total of 4.2M compounds were searched for a match to P1 features. “Drug-like” ZINC database 2019 and ChemBridge catalogue provided P1 analogues commercially available. 18 compounds matching the search criteria were selected and tested for biophysical binding. […] Our next SAR analogs will thus include structural modifications that will explore hydrogen bond patterns and the size of the fragments in the 5-hydroxypiperonyl/pyrazolopyridine area. […]

T1 sequence (P26038 whole entry): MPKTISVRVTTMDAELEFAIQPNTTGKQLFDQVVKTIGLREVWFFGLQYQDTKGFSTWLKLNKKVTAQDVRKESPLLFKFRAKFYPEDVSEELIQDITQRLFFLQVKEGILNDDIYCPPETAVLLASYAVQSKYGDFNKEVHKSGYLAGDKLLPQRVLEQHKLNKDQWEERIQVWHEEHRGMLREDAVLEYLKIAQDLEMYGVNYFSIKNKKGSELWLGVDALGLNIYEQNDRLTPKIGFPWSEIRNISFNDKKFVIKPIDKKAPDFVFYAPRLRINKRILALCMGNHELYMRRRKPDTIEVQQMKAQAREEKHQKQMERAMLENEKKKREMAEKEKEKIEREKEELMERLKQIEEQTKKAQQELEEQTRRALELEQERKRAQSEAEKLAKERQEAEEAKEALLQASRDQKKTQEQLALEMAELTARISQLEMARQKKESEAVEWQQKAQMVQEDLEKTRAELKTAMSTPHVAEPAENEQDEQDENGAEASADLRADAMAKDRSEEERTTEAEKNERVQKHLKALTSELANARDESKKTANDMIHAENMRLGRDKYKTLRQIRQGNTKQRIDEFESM
Chain of GST (P08515 2-218 limits assumed): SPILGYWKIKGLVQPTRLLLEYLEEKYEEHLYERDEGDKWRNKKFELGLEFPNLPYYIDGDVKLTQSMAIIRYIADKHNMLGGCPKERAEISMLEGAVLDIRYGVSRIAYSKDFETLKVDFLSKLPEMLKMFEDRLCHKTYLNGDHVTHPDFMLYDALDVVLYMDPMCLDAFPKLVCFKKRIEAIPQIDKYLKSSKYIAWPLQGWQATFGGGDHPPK

SMILES	binding to Moesin [1]	binding to the control GST [2]	HLA-DR level [3]	shift in melting temperature of Moesin [4]	binding relative to P1 [5]
CN1CCC(Cc2noc(CCc3nc4cccnc4n3C)n2)CC1 [P1]	binding specifically	did not bind	reduced	discrete shift	–
CC(Oc1ccc2c(c1)OCO2)c1nc(CC2CCN(C)CC2)no1 (centres unmarked) [Plsar3]	–	–	–	–	improved binding
